According to patent publication US8822517B2, “Arylosulfonamides for the treatment of CNS diseases” (Adamed SP. Z O.O., priority 2010, dated 2014):

Tests used:
[1] = target: T1, serotonine transporter (SERT) receptor (Homo sapiens, UniProt P31645); assay: Binding assay SERT (h), [3H]imipramine, CHO cells; conditions: read-out: SERT [%]
T1 construct: expressed in transfected cells; host or cells: CHO cells
How it was run: (§1)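 Tested at 1×10^−6 M. Specific binding: total minus binding remaining with excess cold ligand. Detection: scintillation counting.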

[2] = tested on: sigma σ receptor; assay: Binding assay σ (non-selective), [3H]DTG, rat cerebral cortex; conditions: percent inhibition of control specific binding; compounds tested at 1×10^−6 M
Protocol: (§2) The specific ligand binding to the receptors is defined as the difference between the total binding and the nonspecific binding determined in the presence of an excess of so unlabelled ligand.
(§3) The specific Ligand binding to the receptor is defined as the difference between total and non-specific binding determined in the presence of an excess of unlabelled ligand. The compounds were tested at a concentration of 1×10^−6 M, and scintillation counting was the method of detection of ligand binding.

[3] = tested on: adrenergic α1 receptor; assay: Binding assay α1 (non-selective), [3H]prazosin, rat cerebral cortex; conditions: percent inhibition of control specific binding; compounds tested at 1×10^−6 M
How it was run: as §1

[4] = target: T2, muscarinic M3 receptor (Homo sapiens, UniProt P20309); assay: Binding assay M3 (h), [3H]4-DAMP, CHO cells; conditions: read-out: M3 [%]
T2 construct: expressed in transfected cells; host or cells: CHO cells
T2 sequence (P20309 whole entry): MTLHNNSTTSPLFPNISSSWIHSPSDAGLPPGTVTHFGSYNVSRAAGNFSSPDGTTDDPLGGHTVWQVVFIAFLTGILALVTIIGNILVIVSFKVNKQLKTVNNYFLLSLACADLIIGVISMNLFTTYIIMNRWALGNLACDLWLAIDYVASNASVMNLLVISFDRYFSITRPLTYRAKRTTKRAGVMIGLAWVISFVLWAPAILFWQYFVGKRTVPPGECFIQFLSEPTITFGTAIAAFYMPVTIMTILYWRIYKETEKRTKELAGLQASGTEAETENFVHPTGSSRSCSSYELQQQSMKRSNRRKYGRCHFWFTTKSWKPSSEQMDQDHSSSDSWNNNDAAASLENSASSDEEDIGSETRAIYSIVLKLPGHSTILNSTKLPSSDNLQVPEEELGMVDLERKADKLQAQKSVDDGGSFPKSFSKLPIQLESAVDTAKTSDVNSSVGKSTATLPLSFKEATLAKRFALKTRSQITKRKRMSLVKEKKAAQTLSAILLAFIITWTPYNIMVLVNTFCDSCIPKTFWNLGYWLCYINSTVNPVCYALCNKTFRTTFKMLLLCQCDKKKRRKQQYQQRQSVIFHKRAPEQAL
Protocol: as §2, §3

[5] = target: T3, serotoninergic receptor 5-HT2C (Homo sapiens, UniProt P28335); assay: Binding assay 5-HT2C (h), [3H]mesulergine, HEK-293 cells; conditions: read-out: 5-HT2C [%]
T3 construct: expressed in transfected cells; host or cells: HEK-293 cells
T3 sequence (P28335 33-458): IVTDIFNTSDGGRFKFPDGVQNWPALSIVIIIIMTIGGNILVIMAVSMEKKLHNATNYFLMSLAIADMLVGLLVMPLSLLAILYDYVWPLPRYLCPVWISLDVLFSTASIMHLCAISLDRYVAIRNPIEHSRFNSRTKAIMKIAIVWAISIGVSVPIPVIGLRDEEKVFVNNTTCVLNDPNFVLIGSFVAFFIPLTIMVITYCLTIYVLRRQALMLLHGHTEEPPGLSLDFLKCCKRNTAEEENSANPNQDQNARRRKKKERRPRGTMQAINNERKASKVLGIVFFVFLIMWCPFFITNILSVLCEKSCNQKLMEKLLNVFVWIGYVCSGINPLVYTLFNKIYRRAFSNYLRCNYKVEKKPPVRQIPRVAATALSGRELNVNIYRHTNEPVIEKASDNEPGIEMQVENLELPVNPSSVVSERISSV
Protocol: as §2, §3

[6] = target: dopaminergic D3 receptor (Homo sapiens, UniProt P35462); assay: Binding assay D3 (h), [3H]methyl-spiperone, CHO cells; design: expressed in transfected cells; host or cells: CHO cells; conditions: read-out: D3 [%]
Sequence of dopaminergic D3 receptor (P35462 whole entry): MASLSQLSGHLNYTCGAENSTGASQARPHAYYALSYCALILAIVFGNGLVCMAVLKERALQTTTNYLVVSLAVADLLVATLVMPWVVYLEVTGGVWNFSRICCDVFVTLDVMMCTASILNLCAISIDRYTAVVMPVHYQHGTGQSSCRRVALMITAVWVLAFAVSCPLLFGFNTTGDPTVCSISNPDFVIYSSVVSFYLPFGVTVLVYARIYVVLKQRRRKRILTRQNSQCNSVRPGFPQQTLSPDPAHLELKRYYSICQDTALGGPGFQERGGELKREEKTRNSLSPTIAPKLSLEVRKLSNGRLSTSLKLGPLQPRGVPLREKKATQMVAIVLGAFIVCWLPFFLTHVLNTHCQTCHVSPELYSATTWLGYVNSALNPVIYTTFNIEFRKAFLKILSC
How it was run: as §1

[7] = target: serotoninergic 5-HT6 receptor (Homo sapiens, UniProt P50406); assay: Binding assay 5-HT6 (h), [3H]LSD, CHO cells; design: expressed in transfected cells; host or cells: CHO cells; conditions: read-out: 5-HT6
Sequence of serotoninergic 5-HT6 receptor (P50406 whole entry): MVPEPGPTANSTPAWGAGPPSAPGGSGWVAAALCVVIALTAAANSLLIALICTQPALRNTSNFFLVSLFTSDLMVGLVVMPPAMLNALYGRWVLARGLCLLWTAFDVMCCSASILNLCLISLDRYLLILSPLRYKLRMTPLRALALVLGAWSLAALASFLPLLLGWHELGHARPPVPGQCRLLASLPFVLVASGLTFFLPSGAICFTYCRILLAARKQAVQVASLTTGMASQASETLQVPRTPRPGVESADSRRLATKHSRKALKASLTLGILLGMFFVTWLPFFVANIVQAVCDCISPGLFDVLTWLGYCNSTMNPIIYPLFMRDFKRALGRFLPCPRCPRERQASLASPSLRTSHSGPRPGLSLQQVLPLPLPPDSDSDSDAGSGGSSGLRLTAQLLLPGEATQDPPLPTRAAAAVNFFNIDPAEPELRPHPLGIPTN
How it was run: as §1

[8] = target: serotoninergic 5-HT7 receptor (Homo sapiens, UniProt P34969); assay: Binding assay 5-HT7 (h), [3H]LSD, CHO cells; design: expressed in transfected cells; host or cells: CHO cells; conditions: read-out: 5-HT7
Sequence of serotoninergic 5-HT7 receptor (P34969 whole entry): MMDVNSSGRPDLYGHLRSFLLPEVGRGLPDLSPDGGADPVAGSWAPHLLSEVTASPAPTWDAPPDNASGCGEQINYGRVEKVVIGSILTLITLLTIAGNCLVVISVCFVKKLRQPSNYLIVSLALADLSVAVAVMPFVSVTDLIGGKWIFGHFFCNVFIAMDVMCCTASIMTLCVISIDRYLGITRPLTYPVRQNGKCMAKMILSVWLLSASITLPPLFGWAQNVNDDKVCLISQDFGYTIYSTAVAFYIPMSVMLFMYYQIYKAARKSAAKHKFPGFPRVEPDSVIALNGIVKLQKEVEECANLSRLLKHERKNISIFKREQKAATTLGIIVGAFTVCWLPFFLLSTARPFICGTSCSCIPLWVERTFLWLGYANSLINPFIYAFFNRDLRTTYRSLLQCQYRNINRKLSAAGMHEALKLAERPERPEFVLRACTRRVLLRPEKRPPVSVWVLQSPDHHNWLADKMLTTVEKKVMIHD
How it was run: as §1

[9] = target: T4, adrenergic α2C receptor (Homo sapiens, UniProt P18825); assay: Binding assay α2C (h), [3H]RX 821002, CHO cells; design: expressed in transfected cells; host or cells: CHO cells; conditions: read-out: α2C [%]
T4 sequence (P18825 1-462): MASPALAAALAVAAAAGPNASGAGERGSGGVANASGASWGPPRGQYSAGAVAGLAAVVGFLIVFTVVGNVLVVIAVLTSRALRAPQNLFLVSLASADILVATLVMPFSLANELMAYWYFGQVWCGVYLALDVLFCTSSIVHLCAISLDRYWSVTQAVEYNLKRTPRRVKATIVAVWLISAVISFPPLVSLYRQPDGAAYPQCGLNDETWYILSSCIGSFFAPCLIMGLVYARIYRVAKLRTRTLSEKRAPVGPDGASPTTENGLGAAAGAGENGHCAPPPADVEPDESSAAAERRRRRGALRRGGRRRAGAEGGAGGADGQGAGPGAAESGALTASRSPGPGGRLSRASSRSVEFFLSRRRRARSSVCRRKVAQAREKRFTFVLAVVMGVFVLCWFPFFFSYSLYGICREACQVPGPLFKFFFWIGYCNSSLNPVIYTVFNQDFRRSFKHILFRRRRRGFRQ
Protocol: as §2, §3

[10] = target: dopaminergic D2 receptor (Homo sapiens, UniProt P14416); assay: Binding assay D2S (h), [3H]methyl-spiperone, HEK-293 cells; design: expressed in transfected cells; host or cells: HEK-293 cells; conditions: read-out: D2 [%]
Sequence of dopaminergic D2 receptor (P14416 1-414 isoform P14416-2): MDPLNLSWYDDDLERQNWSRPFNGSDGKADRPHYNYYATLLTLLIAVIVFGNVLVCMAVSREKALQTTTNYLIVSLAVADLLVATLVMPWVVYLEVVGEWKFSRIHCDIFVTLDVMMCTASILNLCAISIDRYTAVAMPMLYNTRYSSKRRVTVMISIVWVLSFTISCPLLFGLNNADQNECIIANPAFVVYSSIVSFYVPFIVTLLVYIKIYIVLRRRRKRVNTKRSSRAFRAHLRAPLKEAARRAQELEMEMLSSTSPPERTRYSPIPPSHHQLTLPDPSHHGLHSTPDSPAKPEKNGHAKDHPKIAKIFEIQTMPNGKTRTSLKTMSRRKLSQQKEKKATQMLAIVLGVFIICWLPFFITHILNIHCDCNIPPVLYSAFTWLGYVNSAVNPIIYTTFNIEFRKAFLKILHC
How it was run: as §1

[11] = target: T5, serotoninergic 5-HT1A receptor (Homo sapiens, UniProt P08908); assay: Binding assay 5-HT1A (h), [3H]8-OH-DPAT, HEK-293 cells; design: expressed in transfected cells; host or cells: HEK-293 cells; conditions: read-out: 5-HT1A
T5 sequence (P08908 1-422): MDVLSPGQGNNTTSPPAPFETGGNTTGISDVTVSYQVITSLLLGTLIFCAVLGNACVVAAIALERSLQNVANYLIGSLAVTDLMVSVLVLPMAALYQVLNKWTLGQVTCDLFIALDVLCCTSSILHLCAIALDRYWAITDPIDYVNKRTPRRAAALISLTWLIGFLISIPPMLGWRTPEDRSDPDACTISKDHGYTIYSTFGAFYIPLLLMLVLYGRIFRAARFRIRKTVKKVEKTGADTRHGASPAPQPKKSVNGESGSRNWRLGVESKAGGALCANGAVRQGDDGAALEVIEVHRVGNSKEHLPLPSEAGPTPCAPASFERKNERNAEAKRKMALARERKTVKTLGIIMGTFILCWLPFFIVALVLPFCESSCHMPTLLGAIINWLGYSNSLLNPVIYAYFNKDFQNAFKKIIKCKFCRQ
How it was run: as §1

[12] = target: serotoninergic 5-HT2A receptor (Homo sapiens, UniProt P28223); assay: Binding assay 5-HT2A (h), [3H]ketanserin, HEK-293 cells; design: expressed in transfected cells; host or cells: HEK-293 cells; conditions: read-out: 5-HT2A
Sequence of serotoninergic 5-HT2A receptor (P28223 whole entry): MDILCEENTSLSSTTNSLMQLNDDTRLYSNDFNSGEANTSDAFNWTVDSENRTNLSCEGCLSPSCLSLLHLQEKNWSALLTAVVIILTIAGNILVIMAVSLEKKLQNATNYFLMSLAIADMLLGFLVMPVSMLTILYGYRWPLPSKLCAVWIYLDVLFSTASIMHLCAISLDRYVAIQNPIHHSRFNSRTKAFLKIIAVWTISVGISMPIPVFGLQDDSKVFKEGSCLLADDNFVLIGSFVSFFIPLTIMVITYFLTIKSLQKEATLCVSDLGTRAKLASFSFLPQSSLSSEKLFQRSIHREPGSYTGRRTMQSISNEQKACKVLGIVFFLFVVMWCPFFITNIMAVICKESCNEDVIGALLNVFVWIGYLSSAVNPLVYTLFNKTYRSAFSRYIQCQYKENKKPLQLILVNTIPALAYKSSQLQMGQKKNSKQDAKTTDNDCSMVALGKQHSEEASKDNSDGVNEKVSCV
How it was run: as §1

[13] = target: histaminergic H1 receptor (Homo sapiens, UniProt P35367); assay: Binding assay H1 (h), [3H]pyrilamine, HEK-293 cells; design: expressed in transfected cells; host or cells: HEK-293 cells; conditions: read-out: H1 [%]
Sequence of histaminergic H1 receptor (P35367 whole entry): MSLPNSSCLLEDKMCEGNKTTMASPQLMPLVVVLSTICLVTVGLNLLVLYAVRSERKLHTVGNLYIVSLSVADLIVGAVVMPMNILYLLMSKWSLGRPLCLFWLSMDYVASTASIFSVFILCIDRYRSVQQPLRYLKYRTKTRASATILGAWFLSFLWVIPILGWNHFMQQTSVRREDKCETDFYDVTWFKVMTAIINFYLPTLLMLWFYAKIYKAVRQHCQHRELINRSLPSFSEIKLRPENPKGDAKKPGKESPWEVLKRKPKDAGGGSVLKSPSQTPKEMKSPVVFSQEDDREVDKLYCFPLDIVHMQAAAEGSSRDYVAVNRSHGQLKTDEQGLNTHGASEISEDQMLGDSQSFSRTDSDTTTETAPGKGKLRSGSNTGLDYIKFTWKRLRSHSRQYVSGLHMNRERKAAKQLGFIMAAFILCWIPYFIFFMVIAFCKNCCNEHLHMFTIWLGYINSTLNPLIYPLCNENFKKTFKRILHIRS
Protocol: as §2, §3

T1 sequence (P31645 whole entry): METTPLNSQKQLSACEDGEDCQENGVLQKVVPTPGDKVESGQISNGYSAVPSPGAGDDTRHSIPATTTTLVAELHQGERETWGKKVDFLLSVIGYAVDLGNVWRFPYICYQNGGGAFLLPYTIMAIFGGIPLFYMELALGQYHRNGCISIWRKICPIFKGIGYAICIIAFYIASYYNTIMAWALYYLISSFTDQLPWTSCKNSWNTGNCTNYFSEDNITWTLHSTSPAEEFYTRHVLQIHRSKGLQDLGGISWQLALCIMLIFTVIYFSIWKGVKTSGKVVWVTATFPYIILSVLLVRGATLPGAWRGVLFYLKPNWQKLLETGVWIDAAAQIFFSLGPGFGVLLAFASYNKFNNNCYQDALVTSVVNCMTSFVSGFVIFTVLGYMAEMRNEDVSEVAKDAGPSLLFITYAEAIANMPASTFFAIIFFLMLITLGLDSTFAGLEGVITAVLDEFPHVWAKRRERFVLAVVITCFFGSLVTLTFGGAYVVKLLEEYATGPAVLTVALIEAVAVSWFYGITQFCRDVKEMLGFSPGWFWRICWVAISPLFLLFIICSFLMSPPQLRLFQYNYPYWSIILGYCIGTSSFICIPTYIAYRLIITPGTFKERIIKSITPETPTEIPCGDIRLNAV

| Compound | inhibition at 1 µM [1] [%] | σ [%] [2] [%] | α1 [%] [3] [%] | inhibition at 1 µM [4] [%] | inhibition at 1 µM [5] [%] | inhibition at 1 µM [6] [%] | inhibition at 1 µM [7] [%] | inhibition at 1 µM [8] [%] | inhibition at 1 µM [9] [%] | inhibition at 1 µM [10] [%] | inhibition at 1 µM [11] [%] | inhibition at 1 µM [12] [%] | inhibition at 1 µM [13] [%] |
| --- | --- | --- | --- | --- | --- | --- | --- | --- | --- | --- | --- | --- | --- |
| Cc1[nH]c2ccc(Cl)cc2c1C1=CCN(CCCCNS(=O)(=O)c2ccc(Cl)cc2)CC1 [Compound 58, 4-Chloro-N-{4-[4-(5-chloro-2-methyl-1H-indol-3-yl)-3,6-dihydropyridin-1(2H)-yl]butyl}benzenesulphonamide] | 78 | 34 | 76 | 11 | 21 | 100 | 84 | 46 | 80 | 97 | 94 | 51 | 75 |
| O=S(=O)(NCCCCN1CCN(c2nsc3ccccc23)CC1)c1ccc(F)c(Cl)c1 [Compound 63, N-[4-[4-(1,2-Benzothiazol-3-yl)piperazin-1-yl]butyl]-3-chloro-4-fluorobenzenesulphonamide] | 53 | 54 | 99 | 11 | 95 | 103 | 89 | 99 | 98 | 99 | 97 | 100 | 99 |
| O=S(=O)(NCCCN1CCN(c2nsc3ccccc23)CC1)c1ccc(F)c(Cl)c1 [Compound 64, N-[3-[4-(1,2-Benzothiazol-3-yl)piperazin-1-yl]propyl]-3-chloro-4-fluorobenzenesulphonamide] | 80 | 54 | 93 | 7 |  | 98 | 99 | 99 | 100 | 98 | 99 | 101 | 98 |
| Cc1c(S(=O)(=O)NCCCN2CCN(c3nsc4ccccc34)CC2)sc2ccc(F)cc12 [Compound 66, N-[3-[4-(1,2-Benzothiazol-3-yl)piperazin-1-yl]propyl]-5-fluoro-3-methylbenzothiophene-2-sulphonamide] | 93 | 61 | 93 | 10 | 86 | 101 | 95 | 101 | 103 | 101 | 98 | 101 | 99 |
| O=S(=O)(NCCCN1CCN(c2nsc3ccccc23)CC1)c1cccc(Cl)c1 [Compound 70, N-[3-[4-(1,2-Benzothiazol-3-yl)piperazin-1-yl]propyl]-3-chlorobenzenesulphonamide] | 82 | 64 | 96 | 25 | 88 | 101 | 99 | 100 | 100 | 99 | 99 | 101 | 97 |
| N#Cc1cccc(S(=O)(=O)NCCCN2CCN(c3nsc4ccccc34)CC2)c1 [Compound 74, N-[3-[4-(1,2-Benzothiazol-3-yl)piperazin-1-yl]propyl]-3-cyanobenzenesulphonamide] | 79 | 34 | 94 | 17 | 78 | 92 | 95 | 97 | 92 | 93 | 99 | 102 | 90 |
| O=c1[nH]c2cccc(N3CCN(CCCNS(=O)(=O)c4cccc(Cl)c4)CC3)c2[nH]1 [Compound 174, 3-Chloro-N-[3-[4-(2-oxo-1,3-dihydrobenzimidazol-4-yl)piperazin-1-yl]propyl]benzenesulphonamide] | 11 | −16 | 86 | 15 | 0 | 96 | 4 | 92 | 55 | 91 | 98 | -24 | 25 |
| O=S(=O)(NCCCN1CCN(c2nsc3ccccc23)CC1)c1ccc(Cl)c(Cl)c1 [Compound 251, N-[3-[4-(1,2-Benzothiazol-3-yl)piperazin-1-yl]propyl]-3,4-dichlorobenzenesulphonamide] | 87 | 61 | 95 | 8 | 83 | 97 | 99 | 99 | 96 | 97 | 99 | 101 |  |
| O=c1[nH]c2cccc(N3CCN(CCCNS(=O)(=O)c4ccc(Cl)cc4)CC3)c2[nH]1 [Compound 425, 4-chloro-N-[3-[4-(2-oxo-1,3-dihydrobenzimidazol-4-yl)piperazin-1-yl]propyl]-benzenesulphonamide] | 10 |  |  | 2 | 24 | 104 | 5 | 95 | 59 | 91 | 98 | 25 | 6 |
